The text below walks through data of PubChem BioAssay AID2305 (GlaxoSmithKline (GSK), 2010).

This assay relates to P. falciparum 3D7 growth, pLDH absorbance. The assay is described as follows: P. falciparum 3D7 growth inhibition, dose response, strain 3D7 (AID 2305).

A word on the IC50: it is the concentration that gives 50% inhibition.

`CCCNc1ccc2nccc(CCN3CCC(NCc4ccc5c(c4)NC(=O)CS5)CC3)c2n1` displayed an IC50 of 580 nM.
`OCC1CCN(Cc2ccc(-c3ccc(-c4nc5ccc(F)cc5[nH]4)s3)cc2)CC1` came in with an IC50 of 850 nM.
On to `O=C(Nc1ccccc1)N(Cc1ccc(-c2ccc(CNC3CCCC3)cc2)cc1)C1CCN(Cc2ccccc2)CC1`, for which the IC50 was 410 nM.
For `CCCCCCn1c(Sc2ccc(C#N)c([N+](=O)[O-])c2)nnc1-c1cccc(Cl)c1` the value was 610 nM.
With `CCCCCN1CCCC1CNS(=O)(=O)c1cccc(C(=O)Nc2cccc(C#N)c2)c1` (configuration not stated) the figure was 980 nM; with `CC(C)(C)COC(=O)c1ccc(NC(=O)N[C@@H](Cc2ccc(O)cc2)C(=O)NC2CCN(Cc3ccc(O)cc3)C2)cc1` (some centres not stated), 670 nM.
With `COc1cccc(CN(C(=O)Nc2ccccc2F)[C@H]2C[C@H]3C(=O)Nc4cc(F)ccc4C(=O)N3C2)c1` the figure was 840 nM.
As for `CCC(C)(C)c1ccc(S(=O)(=O)Nc2ccc(Cl)c(OCCN3CCCCC3)c2)cc1`, the IC50 is 1110 nM.
For `CC1CCCN1Cc1cccc(-c2ccc(C(=O)NCCOc3ccccc3)s2)c1` (configuration not stated) the value was 930 nM; for `O=C(CCc1cccc(O)c1)NCC(NCCCNc1cc(=O)c2ccccc2[nH]1)c1cc(Br)cc(Br)c1` (configuration not stated), 1170 nM; for `NC(=NCCc1ccccc1Cl)c1ccc2ccccc2c1`, 1630 nM.
With `FC(F)(F)c1ccc(Nc2nnnc3ccccc23)cc1` the figure was 690 nM; with `CC(C)(CNCc1cccc(Oc2cccc(C(F)(F)F)c2)c1)c1nc(-c2ccc(Cl)c(O)c2)c(-c2ccnc(N)n2)[nH]1`, 190 nM.
For `Cc1cccc2[nH]c(-c3ccc(-c4cccc(CNCC5CCCO5)c4)s3)nc12` (configuration not stated) the value was 970 nM.
Regarding `O=C(c1cc(C(=O)NC2CCCCC2)c(=O)n(C2CCCCC2)c1)c1cc(F)ccc1O`, the 50% inhibitory concentration (IC50) was determined as 630 nM.
As to `COc1c(C2CCN(CCCCNC(=O)c3cc(-c4ccc(C#N)cc4)n[nH]3)CC2)ccc2c1CCCC2`, the IC50 was found to be 1160 nM.
The compound `CCCc1cc(Cc2cnc(N)nc2N)cc(CCC)c1OCCCCC(=O)OC` showed an IC50 of 40 nM.
Compound `CC(=O)Oc1c(Cl)c(C)nc(C)c1-c1ccc(Oc2ccc(Cl)cc2)cc1` came in with a 50% inhibitory concentration (IC50) of 30 nM.
For `N=c1n(CCN2CCCCC2)c2ccccc2n1CC(=O)c1cccc([N+](=O)[O-])c1` the value was 880 nM; for `CN(C)CCCOc1cccc(CCNCc2cccc(Oc3ccc(Cl)cc3)c2)c1`, 1010 nM; for `Cc1ccc2c(Cl)c(C(=O)N3CCCc4ccccc43)sc2c1`, 1510 nM.
With `CC(C)Cn1cc(C2CCN(CCN3CCC(CNC(=O)c4ccc(-c5ccc(C(F)(F)F)cc5)cc4)CC3)CC2)c2ccccc21` the figure was 750 nM; with `Cc1cccc2c(/C=C/C(=O)NC3CCC(CCN4CCc5ccc(C#N)cc5CC4)CC3)c[nH]c12` (configuration not stated), 1220 nM; with `COC(=O)Nc1cc(C(F)(F)F)ccc1N1CCC(CNS(=O)(=O)c2ccc(OC)cc2)CC1`, 250 nM.
With `Cc1[nH]c(C)c(-c2ccc(OCc3cccc(C(F)(F)F)c3)nc2)c(=O)c1Br` the figure was 40 nM.
In turn, `N[C@@H](Cc1cc(I)c(Oc2ccc(O)c(Cl)c2)c(I)c1)C(=O)O` showed an IC50 of 990 nM.
For `CCCCCCCc1cc(=O)c2ccccc2[nH]1` the value was 320 nM.
For `Cc1noc(C)c1-c1cccc(CNCc2cccc(-c3cccc(-c4nc5c(C)cccc5[nH]4)c3)c2)c1` the value was 370 nM; for `O=C(NCCCCN1CCN(c2nsc3ccccc23)CC1)c1ccccc1C(=O)NCCCCN1CCN(c2nsc3ccccc23)CC1`, 890 nM.
With `Cn1c(/C=C/C(=O)NC2CCC(CCN3CCc4ccc(C#N)cc4CC3)CC2)cc2ccccc21` (configuration not stated) the figure was 730 nM.
In the case of `CCCCCCCOc1ccc(NC(=O)Nc2ccc(Cn3ncc(N4CCCNCC4)c(Cl)c3=O)cc2)cc1`, the IC50 came to 920 nM.
As to `COc1ccccc1C(C)NCC(=O)Nc1cc(C(F)(F)F)ccc1Cl` (configuration not stated), the IC50 amounted to 780 nM.
With `O=C(NC1CCN(Cc2ccc3c(c2)OCCO3)CC1)c1ccc(-c2cccc(Cl)c2)s1` the figure was 1910 nM; with `CCC(=O)N1CCc2cc(Br)cc(S(=O)(=O)N3CC(C)CC(C)C3)c21` (configuration not stated), 930 nM.
For `FC(F)(F)c1ccc(CNC2CCN(CC3CCCCC3)CC2)cc1` the value was 930 nM.
With `COc1ccc(-c2cnc3[nH]cc(-c4ccc(C(=O)O)cc4)c3c2)cn1` the figure was 540 nM.
The compound `Oc1ccc(Nc2ccnc3cc(Cl)ccc23)cc1` gave an IC50 of 740 nM.
With `CCN1CCN(C(=O)NC(C(=O)N(C)Cc2ccc(-c3ccc(C(F)(F)F)cc3)cc2)c2cccs2)C(=O)C1=O` (configuration not stated) the figure was 360 nM; with `CC(C)(CNCc1cccc(Oc2ccccc2)c1)c1nc(-c2ccc(Cl)c(O)c2)c(-c2ccnc(N)n2)[nH]1`, 760 nM.
With `O=C(NCCN1CCN(S(=O)(=O)c2ccc(OC3CCNCC3)c(Br)c2)CC1)c1ccc(Cl)c(Cl)c1` the figure was 890 nM.
With `CCOc1cc2ncnc(Nc3ccc(OCc4c(F)cccc4F)c(OC)c3)c2cc1OCC` the figure was 820 nM; with `Cc1cc2c(cc1C(F)(F)F)N(C(=O)Nc1cc(OCCN(C(C)C)C(C)C)cc(C(F)(F)F)c1)CC2`, 260 nM; with `Cc1cc(N[C@@H](Cc2ccccc2)C(=O)NCc2cccs2)nc(NCCc2ccc(F)cc2)n1`, 850 nM.
Consider `O=C(NC1CCN(c2ccnc3cc(Cl)ccc23)C1)c1ccc(C(F)(F)F)cc1` (configuration not stated), for which the IC50 was found to be 140 nM.
For `NCCCNc1ccc(-c2ccc(NC(=O)Nc3cc(C(F)(F)F)ccc3F)cc2)cn1`, the IC50 is 840 nM.
For `O=C(/C=C/c1ccc(Cl)c(Cl)c1)NCCCCCN1CCC(NC(=O)Nc2ccc(Br)cc2)CC1` the value was 570 nM.
Take `O=C(c1cc(C(=O)Nc2ccc(F)cc2)c(=O)n(-c2ccc(F)cc2)c1)c1cc(Cl)ccc1O`: the IC50 is 220 nM.
Consider `Cc1cc(Nc2cccc(C(F)(F)F)c2)nc2ccc(NC(=O)c3ccc(=O)[nH]c3)cc12`, for which the IC50 was 490 nM.
With `COCCNCc1ccc(-c2ccc3c(Nc4ccc(F)cc4Cl)ccnc3c2)o1` the figure was 210 nM.
For `CCc1nc2nc(C)cc(Nc3ccc(F)c(Cl)c3)n2n1` the value was 970 nM; for `OCCN1CCN(Cc2ccc(-c3cccc(-c4nc5ccc(C(F)(F)F)cc5[nH]4)c3)cc2)CC1`, 640 nM.
For `O=C(Cc1ccccc1)NC(c1ccccc1)c1ccc2cccnc2c1O` (configuration not stated), the IC50 turned out to be 950 nM.
With `COc1ccc2nccc([C@@H](O)CN3CCC(NC(=O)C(c4cc5ccccc5o4)N4CCN(c5ccccc5OC)CC4)CC3)c2c1` (some centres not stated) the figure was 310 nM; with `Cc1ccc2nc(-c3ccc(C(=O)NC4CCN(Cc5ccccc5)CC4)s3)[nH]c2c1`, 1010 nM; with `COc1ccc(-n2nc(C)c3c2NC(=O)CC3c2ccccc2OCc2ccc(F)cc2)cc1` (configuration not stated), 850 nM.
The compound `CCN(CC)CCN(Cc1ccc(-c2ccc(C(F)(F)F)cc2)cc1)C(=O)Cn1c(CCc2cccc(F)c2F)c(C)c(=O)c2ccccc21` gave a concentration for half-maximal inhibition (IC50) of 940 nM.
With `Cc1onc(-c2c(Cl)cccc2Cl)c1C(=O)NC1=NC(C)(C)ON1c1ccccc1` the figure was 1070 nM; with `CCCC(C(=O)OCCNC)(c1ccccc1)c1ccccc1`, 890 nM.
Take `O=C(C=Cc1cn(-c2ccccc2)nc1-c1cccs1)N1CCN(c2ccncc2)CC1`: the IC50 was 720 nM.
For `CC(C)c1nc(N2CCN(C(=S)NCc3ccccc3)CC2)c(C#N)c2c1COC(C)(C)C2` the value was 140 nM; for `COc1ccc(-c2cncc3ccc(C(=O)NCCCn4ccnc4)nc23)cc1`, 750 nM; for `Nc1ccncc1C(=O)NCCCCN1CCN(c2nsc3ccccc23)CC1`, 800 nM.
With `O=C(N[C@@H](Cc1ccccc1)[C@H](O)CNC1CCCCC1)c1cc(C2CCCC2)cc(N2CCCC2=O)c1` the figure was 170 nM; with `O=C(NCCCCCN1CCC(c2c[nH]c3ccccc23)CC1)c1ccc(Cl)c(Cl)c1`, 1360 nM; with `C=CCOC(=O)N1CCC(CNCc2ccc(-c3cccc(-c4nc5c(C)cccc5[nH]4)c3)cc2)C1` (configuration not stated), 120 nM.
Take `COc1cc2nc(NCCCN3CCCCC3)nc(NCc3ccccc3)c2cc1OC`: the IC50 was determined as 1000 nM.
With `COc1cccc2c(O)c(CNC3CCCCC3)ccc12` the figure was 630 nM; with `CN1CCN(c2cc3c(cc2Cl)CCN3C(=O)Nc2ccc(NC(=O)c3ccc(C(F)(F)F)cc3)cc2)CC1`, 510 nM; with `FC(F)(F)c1ccc2nc(-c3ccc(-c4cccc(CNCCN5CCNCC5)c4)cc3)[nH]c2c1`, 1030 nM.
With `Nc1ncc(-c2ccc3ncccc3c2)c(N)n1` the figure was 920 nM.
In turn, `Fc1ccc(C=NNc2ccnc3ccc(C(F)(F)F)cc23)cc1` gave an IC50 of 1100 nM.
For `CN1CCN(CCCNCc2cccc(Nc3nccc(Nc4ccc(Oc5ccccc5)cc4)n3)c2)CC1` the value was 760 nM.
For `CC(C)Cn1cc(C2CCN(CCN3CCC(CNC(=O)c4ccc(-c5ccc(C#N)cc5)cc4)CC3)CC2)c2ccccc21` the value was 790 nM; for `Cc1ccccc1N1CCN(c2ccc(C(=O)NC3CC3)cn2)CC1`, 460 nM.
For `CCOC(=O)c1[nH]c(-c2ccccc2)nc1NC(=S)NC1CCCCC1` the value was 840 nM; for `CN(C)CCCn1cncc1-c1ccc2ncnc(Nc3ccc(OCc4ccccc4)cc3)c2c1`, 520 nM.
`OC(CNc1ccnc(Nc2cccc(Cl)c2)n1)c1cccc(F)c1` (configuration not stated) gave an IC50 of 970 nM.
For `CC(C)Sc1nc2c(c(=O)n1CCc1ccccc1)C1(CCCC1)Cc1ccccc1-2` the value was 350 nM.
In the case of `COc1cccc2c(NN=Cc3ccccc3Cl)cc(C)nc12`, the IC50 was 210 nM.
With `CC[C@H](C)CNC(=O)c1cncc(-c2ccc(CN(C)C3CCN(C)CC3)cc2)c1` the figure was 990 nM.
`CN1CCCN(Cc2cccc(-c3ccc(NC(=O)c4ccc(Cl)cc4)cc3)c2)CC1` had an IC50 of 720 nM.
Turning to `Cc1cccc2[nH]c(-c3ccc(-c4ccc(CNCc5ccc(S(C)(=O)=O)cc5)cc4)cc3)nc12`, the IC50 was determined as 750 nM.
With `COc1ccc2nccc(N(C)CC3(O)CCC(NCc4cc5c(cn4)OCCO5)CC3)c2n1` (configuration not stated) the figure was 680 nM; with `CCc1ccc(CN2CCCCC(NC(=O)c3cc(-c4ccccc4F)cs3)C2)cc1` (configuration not stated), 1160 nM.
With `CC(C)n1cc2c(ccc3nc(N)nc(N)c32)n1` the figure was 40 nM; with `COc1ccc(Cl)cc1NC(=O)C(C)Nc1ccc(-c2ccccc2)cc1` (configuration not stated), 560 nM; with `CC1(C)N=C(N)N=C(N)N1OCCCCON1C(N)=NC(N)=NC1(C)C`, 70 nM.
